Reference: patent US20240228547A1, “POLYPEPTIDE FOR RESISTING NOVEL CORONAVIRUS AND APPLICATION THEREOF” (INSTITUTE OF MICROBIOLOGY, CHINESE ACADEMY OF SCIENCES, priority 2021, published 2024)

Experiments:
[1] = system: pseudovirus of SARS-CoV-2 variant Alpha (B.1.1.7); conditions: B.1.1.7 (Alpha) pseudovirus; for IC50: read-out: IC50, inhibitory effect on pseudovirus, Hela hACE2 cells
[2] = system: pseudovirus of SARS-CoV-2 variant Beta (B.1.351); conditions: B.1.351 (Beta) pseudovirus; for IC50: read-out: IC50, inhibitory effect on pseudovirus, Hela hACE2 cells
[3] = system: pseudovirus of SARS-CoV-2 variant D614G; conditions: for IC50: pseudovirus of variant D614G
[4] = system: SARS-COV-2 original strain and its various variants; format: cell-based
[5] = system: pseudovirus of SARS-CoV-2 variant Delta (B.1.617.2); conditions: B.1.617.2 (Delta) pseudovirus; for IC50: read-out: IC50, inhibitory effect on pseudovirus, Hela hACE2 cells
[6] = system: pseudovirus of SARS-CoV-2 variant Kappa (B.1.617.1); conditions: for Increase multiple (fold increase in the inhibitory effect compared to the polypeptide P3) / IC50: B.1.617.1 (Kappa) pseudovirus; for IC50: read-out: IC50, inhibitory effect on pseudovirus, Hela hACE2 cells
[7] = system: pseudovirus of SARS-CoV-2 variant Gamma (P.1); conditions: P.1 (Gamma) pseudovirus; for IC50: read-out: IC50, inhibitory effect on pseudovirus, Hela hACE2 cells

SMILES	Increase multiple (fold increase in the inhibitory effect compared to the polypeptide P3) [1]	IC50 [1] [nM]	Increase multiple (fold increase in the inhibitory effect compared to the polypeptide P3) [2]	IC50 [2] [nM]	Increase multiple (fold increase in the inhibitory effect compared to the polypeptide P3) [3]	IC50 [3] [nM]	inhibitory effect compared with the polypeptide P3 (in words) [4]	Increase multiple (fold increase in the inhibitory effect compared to the polypeptide P3) [5]	IC50 [5] [nM]	Increase multiple (fold increase in the inhibitory effect compared to the polypeptide P3) [6]	IC50 [6] [nM]	Increase multiple (fold increase in the inhibitory effect compared to the polypeptide P3) [7]	IC50 [7] [nM]	inhibitory effect on the Kappa variant strain compared with P3 (in words) ([6]; Kappa variant strain)
CC[C@H](C)[C@H](N)C(=O)N[C@@H](CO)C(=O)NCC(=O)N[C@H](C(=O)N[C@@H](CC(N)=O)C(=O)N[C@@H](C)C(=O)N[C@@H](CO)C(=O)N[C@H](C(=O)N[C@H](C(=O)N[C@@H](CC(N)=O)C(=O)N[C@H](C(=O)N[C@@H](CCCCN)C(=O)N[C@@H](CCC(=O)O)C(=O)N[C@@H](CCC(=O)O)C(=O)N[C@H](C(=O)N[C@@H](CC(=O)O)C(=O)N[C@@H](CCCNC(=N)N)C(=O)N[C@@H](CC(C)C)C(=O)N[C@@H](CC(N)=O)C(=O)N[C@@H](CCC(=O)O)C(=O)N[C@H](C(=O)N[C@@H](C)C(=O)N[C@@H](CCCCN)C(=O)N[C@@H](CC(N)=O)C(=O)N[C@@H](CC(C)C)C(=O)N[C@@H](CC(N)=O)C(=O)N[C@@H](CCC(=O)O)C(=O)N[C@@H](CO)C(=O)N[C@@H](CC(C)C)C(=O)N[C@H](C(=O)N[C@@H](CC(=O)O)C(=O)N[C@@H](CC(C)C)C(=O)N[C@@H](CCC(N)=O)C(=O)N[C@@H](CCC(=O)O)C(=O)N[C@@H](CC(C)C)C(=O)O)[C@@H](C)CC)C(C)C)[C@@H](C)CC)[C@@H](C)CC)C(C)C)C(C)C)[C@@H](C)CC [Polypeptide P3-4]	1.3	590	4.0	200	2.6	300	improved to varying degrees	1.4	550	1.6	480	3.6	220	–
CC[C@H](C)[C@H](N)C(=O)N[C@@H](CO)C(=O)NCC(=O)N[C@H](C(=O)N[C@@H](CC(N)=O)C(=O)N[C@@H](C)C(=O)N[C@@H](CO)C(=O)N[C@H](C(=O)N[C@H](C(=O)N[C@@H](CC(N)=O)C(=O)N[C@H](C(=O)N[C@@H](CCC(N)=O)C(=O)N[C@@H](CCCCN)C(=O)N[C@@H](CCC(=O)O)C(=O)N[C@H](C(=O)N[C@@H](CC(=O)O)C(=O)N[C@@H](CCCNC(=N)N)C(=O)N[C@@H](CC(C)C)C(=O)N[C@@H](CC(N)=O)C(=O)N[C@@H](CCC(=O)O)C(=O)N[C@H](C(=O)N[C@@H](C)C(=O)N[C@@H](CCCCN)C(=O)N[C@@H](CCC(=O)O)C(=O)N[C@@H](CC(C)C)C(=O)N[C@@H](CC(N)=O)C(=O)N[C@@H](CCC(=O)O)C(=O)N[C@@H](CO)C(=O)N[C@@H](CC(C)C)C(=O)N[C@H](C(=O)N[C@@H](CC(=O)O)C(=O)N[C@@H](CC(C)C)C(=O)N[C@@H](CCC(N)=O)C(=O)N[C@@H](CCC(=O)O)C(=O)N[C@@H](CC(C)C)C(=O)O)[C@@H](C)CC)C(C)C)[C@@H](C)CC)[C@@H](C)CC)C(C)C)C(C)C)[C@@H](C)CC [Polypeptide P3-5]	0.5	1430	0.6	1240	0.5	1470	decreased slightly	0.4	1820	0.7	1060	1.3	630	slightly higher than that of P3
CC[C@H](C)[C@H](NC(=O)CNC(=O)[C@H](CO)NC(=O)[C@@H](NC(=O)[C@H](CC(=O)O)NC(=O)CNC(=O)[C@H](Cc1ccccc1)NC(=O)[C@H](CCCCN)NC(=O)[C@@H](N)C(C)C)[C@@H](C)CC)C(=O)N[C@@H](CC(N)=O)C(=O)N[C@@H](C)C(=O)N[C@@H](CO)C(=O)N[C@H](C(=O)N[C@H](C(=O)N[C@@H](CC(N)=O)C(=O)N[C@H](C(=O)N[C@@H](CCCCN)C(=O)N[C@@H](CCC(=O)O)C(=O)N[C@@H](CCC(=O)O)C(=O)N[C@H](C(=O)N[C@@H](CC(=O)O)C(=O)N[C@@H](CCCNC(=N)N)C(=O)N[C@@H](CC(C)C)C(=O)N[C@@H](Cc1ccc(O)cc1)C(=O)N[C@@H](CCC(=O)O)C(=O)N[C@H](C(=O)N[C@H](C(=O)N[C@@H](CCCCN)C(=O)N[C@@H](CC(N)=O)C(=O)N[C@@H](CC(C)C)C(=O)N[C@@H](CC(N)=O)C(=O)N[C@@H](CCC(=O)O)C(=O)N[C@@H](CO)C(=O)N[C@@H](CC(C)C)C(=O)N[C@H](C(=O)N[C@@H](CC(=O)O)C(=O)N[C@@H](CC(C)C)C(=O)N[C@@H](CCC(N)=O)C(=O)N[C@@H](CCC(=O)O)C(=O)N[C@@H](CC(C)C)C(=O)O)[C@@H](C)CC)C(C)C)C(C)C)[C@@H](C)CC)[C@@H](C)CC)C(C)C)C(C)C [Polypeptide P3-3]	2.1	370	7.5	100	5.0	160	most obviously improved	2.4	320	1.8	430	7.2	110	–
